According to patent US20210046061A1, “METHODS AND COMPOSITIONS FOR TREATING HERPESVIRUS INDUCED CONDITIONS” (TRUSTEES OF BOSTON UNIVERSITY, priority 2015, published 2021):

Tests used:
EBV = EBV viral load in patient with post-transplant EBV positive lymphoma; assay type: in vivo, human; conditions: one patient; arginine butyrate and daily ganciclovir; after 3 weeks of treatment; before treatment (Week 1) 27,782
Experimental: (§1) Levels were determined before treatment (week1) and after 3 weeks of treatment (week 3).

CMV = CMV viral load in patient with post-transplant EBV positive lymphoma; assay type: in vivo, human; conditions: one patient; arginine butyrate and daily ganciclovir; after 3 weeks of treatment; before treatment (Week 1) 12,300
Experimental: as §1

[1] = system: relapsed or refractory EBV-positive lymphoid tumors; conditions: arginine butyrate and GCV; of 15 patients; cited from earlier work
HHV-6 = HHV-6 viral load in patient with post-transplant EBV positive lymphoma; assay type: in vivo, human; conditions: one patient; arginine butyrate and daily ganciclovir; after 3 weeks of treatment; before treatment (Week 1) 658,882
Experimental: as §1

[2] = system: BGLF4 (EBV-PK) transcript in P3HR1 cells; assay: Protein kinase (BGLF4) mRNA expression assay, quantitative real-time RT-PCR; assay type: cell-based, human; conditions: 24 hrs exposure, mRNA by RT-PCR
Experimental: (§2) To measure whether Chidamide could induce EBV associated transcripts, the induction of mRNA for the protein kinases TK (FIG. 1A) and BGLF4 (FIG. 1B) in EBV-positive lymphoma cell lines was measured after exposure to different concentrations of the short-chain fatty acid, sodium butyrate (NaB), or the benzamide, chidamide (chid), for 24 hrs. Transcripts were quantitated by quantitative real-time RT-PCR.
(§3) The EBV-positive B lymphoma cell line P3HR1 was used in the study. The P3HR1 cell line was originally derived from Burkitt's lymphoma patient. EBV maintains a latent state of replication in this cell line. These cells were maintained in RPMI 1640 with 10% fetal bovine serum containing 100 U penicillin per ml and 100 μg streptomycin per ml.
(§4) P3HR1 cells were seeded in 60 mm plates containing 3×10^6 cells in 3 ml of fresh growth media. Appropriate concentrations of HDAC inhibitors were added to the plate and cells were incubated in the presence of HDAC inhibitors for 6 h, 24 h, 48 h, or as needed. Cells were harvested by centrifugation and washed once in cold PBS. Total cellular RNA was then extracted. To measure the relative level of TK mRNA in various total RNA preparations, reverse transcription and quantitative PCR using real time PCR analysis were used. […] The relative level of TK expression in a sample was calculated following normalization of β-actin expression level.

[3] = system: viral TK (EBV thymidine kinase) transcript in P3HR1 cells; assay: Thymidine kinase (TK) mRNA expression assay, quantitative real-time RT-PCR; assay type: cell-based, human; conditions: 24 hrs exposure, mRNA by RT-PCR
Experimental: as §2, §3, §4

[4] = system: EBV-positive B lymphoma cell line P3HR1; assay: Drug sensitivity assay: HDAC inhibitor plus ganciclovir, viable cell count by trypan blue; assay type: cell-based, human; conditions: both combined with ganciclovir; living cells counted on day 6
Experimental: To determine tumor cytotoxic activity of the combination of HDACi and GCV, EBV+ lymphoma cells were exposed to a range of concentrations of sodium butyrate or chidamide […] for 3 days and then to GCV alone for another 3 days (FIG. 1C). Efficacy of either sodium butyrate or chidamide in the combination treatment approach was then determined by enumerating living cells. A general experimental protocol is described below.
as §3
To test the sensitivity of EBV-positive lymphoma cells towards chidamide, P3HR1 cells were treated with chidamide in the presence of one anti-viral drug. At the end of the assay, the efficacy of chidamide was assessed by measuring the inhibition of cell growth compared to untreated cells.
Healthy, actively-growing P3HR1 cells were harvested and resuspended in fresh growth media. Cells were seeded in wells. […] On day 6, cell morphology was observed under a microscope and viable cell counts in each individual well was determined by the trypan blue dye exclusion method using an automated cell counter (Countess, Invitrogen).

Compound	EBV viral load, Week 3 (EBV)	CMV viral load, Week 3 (CMV)	patients who achieved complete tumor remissions [1] [patients]	patients who achieved partial tumor remissions [1] [patients]	HHV-6 viral load, Week 3 (HHV-6) [Copies per mL]	concentration at which induction of BGLF4 expression begins [2] [nM]	concentration at which induction of viral TK expression begins [3] [nM]	concentration of chidamide as good in killing as 1.0 mM sodium butyrate [4]
arginine butyrate	1,486 Copies per mL	1,600 Copies per mL	4	6	805			
Nc1cc(F)ccc1NC(=O)c1ccc(CNC(=O)/C=C/c2cccnc2)cc1 [chidamide]						500	500	104
